From US20140377219A1, “HIV INHIBITORS” (New york Blood Center, Inc., priority 2011, published 2014)
Read-outs that look alike come from different tables or passages of the source.

Assays:
MT-2 cells = test: Cytotoxicity in MT-2 cells (XTT); format: cell-based
How it was run: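 XTT viability read-out: MT-2 cells (10^5 cells/ml) incubated with graded compound concentrations four days at 37° C; PBMC at 5×10^5 cells/ml, measured after seven days. CC50 derived from percentage cytotoxicity.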

[1] = system: pNL4-3 gp41 (36G) V38E, N42S (fusion resistant isolate); format: cell-based, HIV-1; settings: subtype B, MT-2, X4, fusion resistant isolate, read-out: IC50 (μM) ± S.D., inhibitory activity on infection
[2] = system: Panel C env Du422, clone 1 (SVPC5); format: cell-based; settings: TZM-bl, read-out: IC50 (μM) ± S.D., antiviral activity against HIV-1 envelope pseudoviruses
[3] = system: Panel C env ZM-197M.PB7, SVPC6; format: cell-based; settings: TZM-bl, read-out: IC50 (μM) ± S.D., antiviral activity against HIV-1 envelope pseudoviruses
[4] = system: Panel C env ZM-214M.PL15, SVPC7; format: cell-based; settings: TZM-bl, read-out: IC50 (μM) ± S.D., antiviral activity against HIV-1 envelope pseudoviruses
[5] = system: Panel C env ZM-233M.PB6, SVPC9; format: cell-based; settings: TZM-bl, read-out: IC50 (μM) ± S.D., antiviral activity against HIV-1 envelope pseudoviruses
[6] = system: Panel C env ZM-249M.PL1, SVPC10; format: cell-based; settings: TZM-bl, read-out: IC50 (μM) ± S.D., antiviral activity against HIV-1 envelope pseudoviruses
[7] = system: Panel C env ZM-53M.PB12, SVPC11; format: cell-based; settings: TZM-bl, read-out: IC50 (μM) ± S.D., antiviral activity against HIV-1 envelope pseudoviruses
[8] = system: Panel C env ZM-109F.PB4, SVPC13; format: cell-based; settings: TZM-bl, read-out: IC50 (μM) ± S.D., antiviral activity against HIV-1 envelope pseudoviruses
[9] = system: Panel C env CAP-45.2.00.G3, SVPC16; format: cell-based; settings: TZM-bl, read-out: IC50 (μM) ± S.D., antiviral activity against HIV-1 envelope pseudoviruses
[10] = system: Panel C env CAP-210.2.00.E8, SVPC17; format: cell-based; settings: TZM-bl, read-out: IC50 (μM) ± S.D., antiviral activity against HIV-1 envelope pseudoviruses
[11] = system: Panel B env pCAAN5342 clone A2 (SVPB19); format: cell-based; settings: TZM-bl, read-out: IC50 (μM) ± S.D., antiviral activity against HIV-1 envelope pseudoviruses
HIV-1 BaL = test: Neutralization assay in PBMC (p24 ELISA); settings: read-out: IC50 (μM) ± S.D., inhibitory activity on infection, BaL, subtype B, R5, laboratory strain
Protocol: (§1) PBMCs were isolated from the blood of healthy donors at the New York Blood Center by standard density-gradient centrifugation using Histopaque-1077 (Sigma-Aldrich). The cells were cultured at 37° C. for 2 h. Non-adherent cells were collected and resuspended at 5×10^6 cells/ml in RPMI-1640 medium containing 10% (v/v) fetal bovine serum, 5 μg/ml of phytohemagglutinin, and 100 U/ml of IL-2 (Sigma-Aldrich), followed by incubation at 37° C. for three days.

HIV-1 SF162 = test: Neutralization assay in PBMC (p24 ELISA); settings: read-out: IC50 (μM) ± S.D., inhibitory activity on infection; SF162, subtype B, PBMC, R5, laboratory strain
Protocol: as §1

[12] = system: primary HIV-1 isolate 93MW959 (clade C, R5); test: Neutralization assay in PBMC (p24 ELISA); settings: read-out: IC50 (μM) ± S.D., inhibitory activity on infection, 93MW959, subtype C
Protocol: (§2) The inhibitory activity of small molecules on infection by primary HIV-1 isolates was determined. PBMCs were isolated from the blood of healthy donors at the New York Blood Center by standard density-gradient centrifugation using Histopaque-1077 (Sigma-Aldrich). The cells were cultured at 37° C. for 2 h. Non-adherent cells were collected and resuspended at 5×10^6 cells/ml in RPMI-1640 medium containing 10% (v/v) fetal bovine serum, 5 μg/ml of phytohemagglutinin, and 100 U/ml of IL-2 (Sigma-Aldrich), followed by incubation at 37° C. for three days.

[13] = system: primary HIV-1 isolate 93BR029 (clade F, R5); test: Neutralization assay in PBMC (p24 ELISA); settings: read-out: IC50 (μM) ± S.D., inhibitory activity on infection; 93BR029, subtype F, PBMC, R5, primary isolate
Protocol: as §1

[14] = system: primary HIV-1 isolate 92UG031 (subtype A, R5); test: Neutralization assay in PBMC (p24 ELISA); settings: read-out: IC50 (μM) ± S.D., inhibitory activity on infection; 92UG031, subtype A, PBMC, R5, primary isolate
Protocol: as §2

[15] = system: primary HIV-1 isolate 93IN101 (subtype C, R5); test: Neutralization assay in PBMC (p24 ELISA); settings: read-out: IC50 (μM) ± S.D., inhibitory activity on infection; 93IN101, subtype C, PBMC, R5, primary isolate
Protocol: as §2

[16] = system: primary HIV-1 isolate BCF02 (Group 0, R5); test: Neutralization assay in PBMC (p24 ELISA); settings: read-out: IC50 (μM) ± S.D., inhibitory activity on infection; BCF02, Group 0, PBMC, R5, primary isolate
Protocol: as §2

HIV-1 MN = test: Multi-cycle neutralization assay in MT-2 cells; settings: read-out: IC50 (μM) ± S.D., inhibitory activity on infection; MN, subtype B, MT-2, X4, laboratory strain
Protocol: In brief, 1×10^4 MT-2 cells were infected with HIV-1 at 100 TCID50 (50% tissue culture infective dose) (0.01MOI) in 200 μl medium in the presence or absence of small molecules at graded concentrations and incubated overnight. The culture supernatants were then removed and replaced with fresh media. On the fourth day post-infection, 100 μl of culture supernatants were collected from each well, mixed with equal volume of 5% Triton X-100 and tested for p24 antigen by sandwich-ELISA. The percent inhibition of p24 production and IC50 values were calculated by the GraphPad Prism software (GraphPad Software Inc.).

[17] = system: AZT-resistant (AZT-R) HIV-1 strain; test: Multi-cycle neutralization assay in MT-2 cells; settings: read-out: IC50 (μM) ± S.D., inhibitory activity on infection; AZT-R, subtype B, MT-2, X4, RT-resistant isolate
HIV-1 SF2 = test: Multi-cycle neutralization assay in MT-2 cells; settings: read-out: IC50 (μM) ± S.D., inhibitory activity on infection; SF2, subtype B, MT-2, R5X4, laboratory strain
[18] = system: HIV-1 RF/L-323-12-3 (protease resistant isolate); test: Multi-cycle neutralization assay in MT-2 cells; settings: read-out: IC50 (μM) ± S.D., inhibitory activity on infection; HIV-1 RF/L-323-12-3, subtype B, MT-2, X4, protease resistant isolate
HIV-1 89.6 = test: Neutralization assay in PBMC (p24 ELISA); settings: read-out: IC50 (μM) ± S.D., inhibitory activity on infection; 89.6, subtype B, PBMC, R5X4, laboratory strain
Protocol: as §2

[19] = MT-2 cells, XTT, four days, read-out: MT-2 Cells CC50

Row | Structure (SMILES) | IC50 [1] [µM] | IC50 [2] [µM] | IC50 [3] [µM] | IC50 [4] [µM] | IC50 [5] [µM] | IC50 [6] [µM] | IC50 [7] [µM] | IC50 [8] [µM] | IC50 [9] [µM] | IC50 [10] [µM] | IC50 [11] [µM] | IC50 (HIV-1 BaL) [µM] | IC50 (HIV-1 SF162) [µM] | IC50 [12] [µM] | IC50 [13] [µM] | IC50 [14] [µM] | IC50 (HIV-1 MN) [µM] | IC50 [17] [µM] | IC50 (HIV-1 SF2) [µM] | IC50 [18] [µM] | other results
1 | Cc1nc(C(NC(=O)C(=O)Nc2ccc(Cl)cc2)C2CCCCN2)sc1CO.Cl (stereo not shown) [Compound 6, N^1-(4-chlorophenyl)-N^2-((5-(hydroxymethyl)-4-methylthiazol-2-yl)(piperidin-2-yl)methyl)oxalamide.HCl] | 5.8 ± 0.3 | 15.9 ± 0.4 | > 21 | > 21 | 5.6 ± 1.3 | 1.5 ± 0.6 | 2.4 ± 0.2 | 1.2 ± 0.2 | 4.7 ± 0.95 | 15.1 ± 1.5 | 2.3 ± 0.3 | 35.8 ± 1.2 | 12.7 ± 0.7 | > 43.5 | 8 ± 1.3 | 9.3 ± 0.7 | 4 ± 0.9 | 4.4 ± 1.1 | 5.7 ± 0.9 | 14.7 ± 2.3 | % toxicity at that dose (number in parenthesis), MT-2 cells (MT-2 cells): 40%; CC50 (MT-2 cells): > 108 µM; IC50 [15]: > 87 µM; IC50 [16]: ~87 µM
2 | Cc1ccc(NC(=O)C(=O)NC(c2nc(C)c(CO)s2)C2CCCCN2)cc1F.Cl (stereo not shown) [Compound 28, N^1-(3-fluoro-4-methylphenyl)-N^2-((5-(hydroxymethyl)-4-methylthiazol-2-yl)(piperidin-2-yl)methyl)oxalamide.HCl] | 4.6 ± 0.4 | > 42 | > 42 | > 42 | – | > 42 | > 42 | > 42 | – | > 42 | 1.5 ± 0.1 | 23.7 ± 0.3 | 8.1 ± 1.2 | > 42.5 | 5.2 ± 1.1 | 13.4 ± 1.2 | 24.6 ± 4.6 | 5.5 ± 0.7 | 38.7 ± 4.5 | 4.8 ± 0.9 | CC50 (MT-2 cells; MT-2 cells, XTT, four days, listed as NBD-11008, read-out: MT-2 Cells CC50): ~85 µM; CC50 (MT-2 cells; [19]): > 88 µM; % toxicity at that dose (number in parenthesis), MT-2 cells (MT-2 cells; at the dose given as CC50 bound): 30%; IC50 (HIV-1 89.6): 3.9 ± 0.5 µM; IC50 [15]: > 85 µM; IC50 [16]: > 85 µM
3 | Cc1nc(C(NC(=O)C(=O)Nc2ccc(Cl)c(F)c2)C2CCCCN2)sc1CCO.Cl (stereo not shown) [Compound 39, N^1-(4-chloro-3-fluorophenyl)-N^2-((5-(2-hydroxyethyl)-4-methylthiazol-2-yl)(piperidin-2-yl)methyl)oxalamide.HCl] | 3.9 ± 0.3 | 2.5 ± 0.1 | 2.3 ± 0.2 | 2.9 ± 0.4 | 2.5 ± 0.5 | 2.5 ± 0.2 | – | 3 ± 0.1 | 3.4 ± 0.4 | 3.2 ± 0.6 | 0.8 ± 0.3 | 24.9 ± 4.5 | 11.9 ± 1 | – | 8.3 ± 0.7 | 12.9 ± 1.5 | 16.7 ± 1.5 | 6.8 ± 0.6 | 15.8 ± 1.7 | 6.9 ± 1 | IC50 (HIV-1 89.6): 6.2 ± 0.3 µM; IC50 [15]: ~81.5 µM; IC50 [16]: 65.1 ± 3.5 µM
4 | CC1(C)CC(NC(=O)C(=O)Nc2ccc(Cl)cc2)CC(C)(C)N1 [NBD-556, reference compound] | 11 ± 0.9 | 11.8 ± 2.9 | 7.9 ± 0.9 | 6.5 ± 1.3 | 4.9 ± 1.13 | 6.1 ± 1.7 | 13.4 ± 0.06 | 10.4 ± 3.5 | 7.9 ± 0.87 | 13.3 ± 1.3 | 2.4 ± 0.3 | ≥ 118 | 48.9 ± 7.3 | 57.2 ± 8.7 | 40 ± 10.6 | – | 15.9 ± 1.6 | 58 ± 14.3 | ≥ 118 | > 59 | CC50 (MT-2 cells; MT-2 cells, XTT, four days, listed as 1, read-out: MT-2 Cells CC50): ~150 µM; CC50 (MT-2 cells; [19]): 280 µM; IC50 (HIV-1 89.6): 4.8 ± 1 µM
